Results on 18 compounds are retold here after PMC12389619, “Discovery and Evaluation of Novel Sulfonamide Derivatives Targeting Aromatase in ER+ Breast Cancer” (Pharmaceuticals, 2025).

Like-named read-outs stand apart in the source and are kept apart here.

The test system of experiment [1] is NIH3T3 mouse fibroblast cell line. The experiment is described as follows: MTT cytotoxicity assay on NIH3T3. The conditions noted are these: read-out: NIH3T3 IC50. In general terms: Tetrazolium dyes change colour on reduction, which living cells bring about.
Experimental: (§1) MCF7 and NIH3T3 were grown in Dulbecco’s Modified Eagle Medium (DMEM, Sigma-Aldrich, USA); supplemented with 10% fetal bovine serum (Capricorn Scientific, Ebsdorfergrund, Germany) and 1% antibiotics (100 mg/mL of streptomycin and 100 units of penicillin, Sigma-Aldrich, Taufkirchen, Germany); and incubated until confluent at 37 °C in a humidified incubator with a 5% CO2 atmosphere.
(§2) The cytotoxicity assays were performed using the human MCF7, mouse fibroblast NIH3T3, and human non-tumorigenic mammary epithelial MCF12A cell lines in accordance with the MTT procedure previously reported [37, 38].
(§3) The compounds were dissolved in dimethyl sulfoxide (DMSO, AppliChem, Darmstadt, Germany) and diluted to the required concentrations with fresh medium, while the solvent control was prepared with a medium containing 0.1% DMSO. The half-maximal inhibitory concentrations (IC50) of the compounds were determined by calculating the cell viability via the MTT assay. The cells were harvested and counted using an automated cell counter (LUNA II, Logos Biosystems, Gyeonggi, Republic of Korea). […] Following a 24 h incubation period, the MTT solution was added to the wells to a final concentration of 5 mg/mL. The cells were incubated for a 3 h period, after which point the medium was removed and 100 µL of DMSO was added. The absorbances were measured at 540 nm using a MultiMode Plate Reader (BioTek, HTX Synergy, Winooski, Vermont, USA).
For experiment [2], the target named is T1, Aromatase (CYP19A) (Homo sapiens, UniProt P11511).
T1 sequence (P11511 1-503): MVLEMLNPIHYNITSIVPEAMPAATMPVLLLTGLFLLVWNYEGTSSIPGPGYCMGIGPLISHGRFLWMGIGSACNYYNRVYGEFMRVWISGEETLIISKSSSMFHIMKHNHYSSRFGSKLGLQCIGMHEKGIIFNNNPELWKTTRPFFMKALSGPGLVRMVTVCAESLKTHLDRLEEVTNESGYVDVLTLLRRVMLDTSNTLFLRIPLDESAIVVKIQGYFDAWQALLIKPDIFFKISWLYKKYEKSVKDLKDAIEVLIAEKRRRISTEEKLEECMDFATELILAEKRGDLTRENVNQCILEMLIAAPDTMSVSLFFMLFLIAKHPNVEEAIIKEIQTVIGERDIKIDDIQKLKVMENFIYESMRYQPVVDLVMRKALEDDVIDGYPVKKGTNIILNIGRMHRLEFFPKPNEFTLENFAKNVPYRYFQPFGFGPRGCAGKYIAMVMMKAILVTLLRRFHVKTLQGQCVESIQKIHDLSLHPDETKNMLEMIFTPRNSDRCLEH
The experiment is described as follows: biochemical.

The test system of experiment [3] is MCF7 human breast cancer cell line. The experiment can be described thus: MTT cytotoxicity assay on MCF7. The conditions noted are these: read-out: MCF7 IC50.
Experimental: as §1, §2, §3
The test system of experiment [4] is MCF12A non-tumorigenic mammary cell line. The experiment can be described thus: MTT cell viability on MCF12A. The conditions noted are these: concentration range 1 mM–1 nM, 24 h. Type of experiment: cell-based, human. How it is done:
This fact is of crucial importance to the effective and safe treatment of cancer since selectivity refers to the ability of a drug to target cancer cells while minimizing the harm to healthy cells. This targeted approach has the potential to yield more efficacious therapies with a reduced incidence of adverse effects, thereby enhancing patient outcomes.
MCF12A was maintained in DMEM/Ham’s F12 (1:1); supplemented with 5% horse serum, 20 ng/mL of human epidermal growth factor, 0.01 mg/mL of bovine insulin, 500 ng/mL of hydrocortisone, and 100 U/mL (50 µg/mL) of penicillin–streptomycin; and maintained at 37 °C in a humidified atmosphere of 5% CO2.

The target in experiment [5] is T1, Aromatase (CYP19A). The conditions noted are these: read-out: Aromatase IC50; means of quartet assays.

Broadly, the IC50 is the concentration at which inhibition is half-maximal. Turning to `Cc1ccc(S(=O)(=O)Nc2ccc(Cl)cn2)cc1` [Compound 4, N-(5-chloropyridin-2-yl)-4-methylbenzenesulfonamide], the IC50 was > 100 µM in experiment [1] (Mus musculus, NIH3T3, 24 h); > 100 µM against Aromatase (CYP19A) [2]; > 100 µM in experiment [3] (Homo sapiens, MCF7, 24 h).

For `O=S(=O)(NCCN1CCCCC1)c1ccccc1` [Compound 9, N-(2-(piperidin-1-yl)ethyl)benzenesulfonamide], the IC50 in experiment [1] (Mus musculus, NIH3T3, 24 h) was 58.2 ± 0.952 µM; in experiment [3] (Homo sapiens, MCF7, 24 h) it was 3.29 ± 0.119 µM. In experiment [4], the “effect on MCF12A cell viability” value is reported as “no effects”.

On to `Cc1ccc(S(=O)(=O)NCCN2CCCCC2)cc1` [Compound 11], for which the IC50 in experiment [1] (Mus musculus, NIH3T3, 24 h) came out at 29.6 ± 0.812 µM; in experiment [3] (Homo sapiens, MCF7, 24 h), 43.6 ± 1.86 µM.

Turning to `Cc1ccc(S(=O)(=O)NC2CCN(Cc3ccccc3)CC2)cc1` [Compound 8, N-(1-benzylpiperidin-4-yl)-4-methylbenzenesulfonamide], the IC50 was > 100 µM in experiment [1] (Mus musculus, NIH3T3, 24 h); > 1000 µM at Aromatase (CYP19A) [2]; > 100 µM in experiment [3] (Homo sapiens, MCF7, 24 h).

`Cc1ccc(S(=O)(=O)Nc2ccccn2)cc1` [Compound 3, 4-metyl-N-(pyridin-2-yl)benzenesulfonamide]: the IC50 worked out at 64.3 ± 1.83 µM in experiment [1] (Mus musculus, NIH3T3, 24 h); 0.035 ± 0.001 µM against Aromatase (CYP19A) [2]; 2.68 ± 0.104 µM in experiment [3] (Homo sapiens, MCF7, 24 h).

With `O=S(=O)(Cc1ccccc1)Nc1ncc(Cl)cc1Cl` [Compound 6, N-(3,5-dichloropyridin-2-yl)-1-phenylmethanesulfonamide], the IC50 in experiment [1] (Mus musculus, NIH3T3, 24 h) is > 100 µM; on Aromatase (CYP19A) [2], > 100 µM; in experiment [3] (Homo sapiens, MCF7, 24 h), 25.3 ± 0.945 µM.

In the case of “4-methyl-N-(2-morpholinethyl)benzenesulfonamide [Compound 16]”, the IC50 in experiment [1] (MTT, 24 h, healthy model, means of quartet assays) stood at 50.9 ± 1.51 µM; on Aromatase (CYP19A) [5], 160 ± 6 nM; in experiment [3] (MTT, 24 h, means of quartet assays), 19.6 ± 0.678 µM.

With `Cc1ccc(S(=O)(=O)NCCCN2CCCC2)cc1` [Compound 12, 4-methyl-N-(3-(pyrrolidin-1-yl)propyl)benzenesulfonamide], the 50% inhibitory concentration (IC50) is > 100 µM in experiment [1] (Mus musculus, NIH3T3, 24 h); > 1000 µM on Aromatase (CYP19A) [2]; 32.1 ± 1.17 µM in experiment [3] (Homo sapiens, MCF7, 24 h).

With `Cc1ccc(S(=O)(=O)NCCC2CCCN2C)cc1` (stereo not drawn) [Compound 14, 4-methyl-N-(2-(1-methylpyrrolidin-2-yl)ethyl)benzenesulfonamide], the half-maximal inhibitory concentration (IC50) was found to be 56.1 ± 1.93 µM in experiment [1] (Mus musculus, NIH3T3, 24 h); 0.051 ± 0.001 µM at Aromatase (CYP19A) [2]; 10.5 ± 0.477 µM in experiment [3] (Homo sapiens, MCF7, 24 h).

For `O=S(=O)(Cc1ccccc1)NCCN1CCCCC1` [Compound 10, 1-phenyl-N-(2-(piperidin-1-yl)ethyl)methanesulfonamide], the 50% inhibitory concentration (IC50) in experiment [1] (Mus musculus, NIH3T3, 24 h) is 30.9 ± 1.03 µM; against Aromatase (CYP19A) [2] it was 0.052 ± 0.002 µM; in experiment [3] (Homo sapiens, MCF7, 24 h) it was 6.2 ± 0.258 µM.

For the compound `O=S(=O)(NCCN1CCOCC1)c1ccccc1` [Compound 15, N-(2-morpholinethyl)benzenesulfonamide], the IC50 stood at 39.3 ± 0.995 µM in experiment [1] (Mus musculus, NIH3T3, 24 h) and 12.4 ± 0.417 µM in experiment [3] (Homo sapiens, MCF7, 24 h).

As for `CN1CCCC1CCNS(=O)(=O)c1ccccc1` (stereo not drawn) [Compound 13, N-(2-(1-methylpyrrolidin-2-yl)ethyl)benzenesulfonamide], the IC50 in experiment [1] (Mus musculus, NIH3T3, 24 h) worked out at 49.6 ± 1.73 µM; in experiment [3] (Homo sapiens, MCF7, 24 h) it was 8.06 ± 0.319 µM.

`Cc1ccc(S(=O)(=O)NCCc2ccccn2)cc1` [Compound 2, 4-methyl-N-(2-(pyridin-2-yl)ethyl)benzenesulfonamide]: the IC50 in experiment [1] (Mus musculus, NIH3T3, 24 h) worked out at 51.4 ± 1.74 µM; against Aromatase (CYP19A) [2], 0.248 ± 0.01 µM; in experiment [3] (Homo sapiens, MCF7, 24 h) it was 15.4 ± 0.356 µM.

Consider `O=S(=O)(Cc1ccccc1)NCCN1CCOCC1` [Compound 17, N-(2-morpholinoethyl)-1-phenylmethanesulfonamide], for which the 50% inhibitory concentration (IC50) in experiment [1] (Mus musculus, NIH3T3, 24 h) is 43.1 ± 1.03 µM; on Aromatase (CYP19A) [2] it was 0.206 ± 0.009 µM; in experiment [3] (Homo sapiens, MCF7, 24 h), 14.6 ± 0.522 µM.

As for `COc1cccc2c1C(=O)c1c(O)c3c(c(O)c1C2=O)C[C@@](O)(C(=O)CO)C[C@@H]3O[C@H]1C[C@H](N)[C@H](O)[C@H](C)O1` [Doxorubicin, reference compound], the IC50 in experiment [1] (Mus musculus, NIH3T3, 24 h) was > 100 µM.

As to `O=S(=O)(NC1CCN(Cc2ccccc2)CC1)c1ccccc1` [Compound 7, N-(1-benzylpiperidin-4-yl)benzenesulfonamide], the IC50 in experiment [1] (Mus musculus, NIH3T3, 24 h) is 44.3 ± 1.05 µM; against Aromatase (CYP19A) [2] it was > 1000 µM; in experiment [3] (Homo sapiens, MCF7, 24 h), 28.5 ± 0.514 µM.

Regarding `O=S(=O)(NCCc1ccccn1)c1ccccc1` [Compound 1, N-(2-(pyridin-2-yl)ethyl)benzenesulfonamide], the IC50 was 46.9 ± 1.99 µM in experiment [1] (Mus musculus, NIH3T3, 24 h) and 7.51 ± 0.296 µM in experiment [3] (Homo sapiens, MCF7, 24 h).

As for `Cc1ccc(S(=O)(=O)Nc2ncc(Cl)cc2Cl)cc1` [Compound 5, N-(3,5-dichloropyridin-2-yl)-4-methylbenzenesulfonamide], the 50% inhibitory concentration (IC50) in experiment [1] (Mus musculus, NIH3T3, 24 h) is 76.6 ± 1.13 µM; at Aromatase (CYP19A) [2], > 100 µM; in experiment [3] (Homo sapiens, MCF7, 24 h), > 100 µM.
